From publication PMC3115495 (Bioorganic & medicinal chemistry letters, 2011) come the findings set out here.

One test concerns the target KOR-1 (Homo sapiens, UniProt P41145). Kind of test: ^125I-opioid saturation studies in KOR-1/CHO cells. In kind it is binding. To be noted: at the highest concentrations of radioligands used.
In test [1] the target is mu opioid receptor (MOR-1) (UniProt P42866). Put plainly: radioligand binding.
Sequence of mu opioid receptor (MOR-1) (P42866 whole entry): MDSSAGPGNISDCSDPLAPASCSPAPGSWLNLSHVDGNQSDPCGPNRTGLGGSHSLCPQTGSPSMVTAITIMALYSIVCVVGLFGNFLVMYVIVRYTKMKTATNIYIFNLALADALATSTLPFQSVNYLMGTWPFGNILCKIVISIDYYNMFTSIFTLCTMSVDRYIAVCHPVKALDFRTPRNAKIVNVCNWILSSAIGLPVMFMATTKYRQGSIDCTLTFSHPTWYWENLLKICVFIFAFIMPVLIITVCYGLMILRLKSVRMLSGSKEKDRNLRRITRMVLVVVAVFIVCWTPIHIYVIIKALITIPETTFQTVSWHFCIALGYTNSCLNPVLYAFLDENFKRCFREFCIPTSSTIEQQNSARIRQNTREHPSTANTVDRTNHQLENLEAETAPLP

Sequence of KOR-1 (P41145 whole entry, species assumed): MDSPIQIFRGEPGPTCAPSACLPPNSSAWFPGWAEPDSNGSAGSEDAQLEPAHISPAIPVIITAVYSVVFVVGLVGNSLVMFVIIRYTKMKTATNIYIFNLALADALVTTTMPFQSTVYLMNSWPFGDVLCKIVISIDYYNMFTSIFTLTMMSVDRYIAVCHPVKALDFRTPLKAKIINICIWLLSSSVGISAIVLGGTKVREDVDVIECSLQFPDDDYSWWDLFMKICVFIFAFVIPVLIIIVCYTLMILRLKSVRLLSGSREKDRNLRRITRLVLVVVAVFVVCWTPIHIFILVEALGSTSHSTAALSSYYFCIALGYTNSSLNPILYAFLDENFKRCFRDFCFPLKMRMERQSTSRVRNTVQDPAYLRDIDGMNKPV

For `CN1CC[C@]23c4c5ccc(O)c4O[C@H]2[C@H](NC(=O)c2cccc([125I])c2)CC[C@@]3(O)[C@H]1C5` [^125IBOxyA (20)], the “Specific binding in KOR-1/CHO cells” value at KOR-1 is given as “No specific”.
One may read the Ki as a dissociation constant, usually derived from enzyme kinetics or from competition with a known ligand. Consider “[-DAla^2,MePhe^4,Gly(ol)^5]enkephalin (peptide)”, for which, in test [1], the Ki came to 1.55 nM.
